Source: ChEMBL document CHEMBL4376816, “Discovery of the Oral Leukotriene C4 Synthase Inhibitor (1S,2S)-2-({5-[(5-Chloro-2,4-difluorophenyl)(2-fluoro-2-methylpropyl)amino]-3-methoxypyrazin-2-yl}carbonyl)cyclopropanecarboxylic Acid (AZD9898) as a New Treatment for Asthma” (J Med Chem, 2019)
Active and inactive are the calls of the source. The rule behind the calls is not given here.

test system: not listed separately; test: Octanol/Sodium phosphate buffer partition coefficient, log D of compound at pH 7.4 at 1 mg incubated for overnight under shaking condition by LC-MS/MS analysis; assay type: physicochemical; details: not given

| Compound | logD |
| --- | --- |
| COc1cc(N(CC2CC2)c2cc(Cl)c(F)cc2F)cnc1C(=O)[C@H]1C[C@@H]1C(=O)O | 1.1 |
| COc1cc(N(CC2CC2)c2ccc(F)c(Cl)c2)cnc1C(=O)[C@H]1C[C@@H]1C(=O)O | 1.2 |
| COc1cc(N(CC(C)(C)O)c2cccc(C(F)(F)F)c2)cnc1C(=O)[C@H]1C[C@@H]1C(=O)O | 0 |
| CCN(c1cccc(C(F)(F)F)c1)c1cnc(C(=O)[C@H]2C[C@@H]2C(=O)O)c(OC)c1 | 0.7 |
| CCN(c1cnc(C(=O)[C@H]2C[C@@H]2C(=O)O)c(OC)c1)c1ccc(F)c2ccccc12 | 1.4 |
| COc1cc(N(CC(C)C)c2cccc(C(F)(F)F)c2)cnc1C(=O)[C@H]1C[C@@H]1C(=O)O | 1.6 |
| COc1nc(N(CC(C)(C)F)c2cc(C(F)(F)F)ccc2F)cnc1C(=O)[C@H]1C[C@@H]1C(=O)O | 1.2 |
| COc1cc(N(CC(C)C)c2ccc(F)c3ccccc23)cnc1C(=O)[C@H]1C[C@@H]1C(=O)O | 2.2 |
| COc1cc(N(CC2CC2)c2ccc(Cl)cc2)cnc1C(=O)c1cccc(C(=O)O)c1 | 1.7 |
| COc1cc(N(CC2CC2)c2ccc(Cl)cc2)cnc1C(=O)[C@@H]1C[C@H]1C(=O)O (relative stereo) | 1.3 |
| COc1cc(N(CC(C)C)c2cc(Cl)c(F)cc2F)cnc1C(=O)[C@H]1C[C@@H]1C(=O)O | 1.3 |
| COc1cc(N(CC2CC2)c2cc(Cl)ccc2F)cnc1C(=O)[C@H]1C[C@@H]1C(=O)O | 1.1 |
| CCCN(c1cnc(C(=O)[C@H]2C[C@@H]2C(=O)O)c(OC)c1)c1ccc(F)c2ccccc12 | 1.8 |
| COc1cc(N(CC2CC2)c2ccc(Cl)c(Cl)c2)cnc1C(=O)[C@H]1C[C@@H]1C(=O)O | 1.6 |
| COc1cc(N(CC2CC2)c2cc(C(F)(F)F)ccc2F)cnc1C(=O)[C@H]1C[C@@H]1C(=O)O | 1.2 |
| COc1nc(C(=O)[C@@H]2C[C@H]2C(=O)O)ncc1N(CC1CC1)c1ccc(Cl)c2ccccc12 (relative stereo) | 2.9 |
| COc1cc(N(CC(C)(C)F)c2cccc(C(F)(F)F)c2)cnc1C(=O)[C@H]1C[C@@H]1C(=O)O | 0.9 |
| COc1cc(N(CC2CC2)c2cccc(C(F)(F)F)c2)cnc1C(=O)[C@H]1C[C@@H]1C(=O)O | 1.4 |
| COc1cc(N(CC(C)(C)F)c2cc(C(F)(F)F)ccc2F)cnc1C(=O)[C@H]1C[C@@H]1C(=O)O | 0.8 |
| COc1cc(N(CC2CC2)c2ccccc2)cnc1C(=O)[C@H]1C[C@@H]1C(=O)O | 0.65 |
| COc1nc(N(CC(C)C)c2cc(C(F)(F)F)ccc2F)cnc1C(=O)[C@H]1C[C@@H]1C(=O)O | 2 |
| COc1cc(N(CC(C)(C)F)c2cc(Cl)c(F)cc2F)cnc1C(=O)[C@H]1C[C@@H]1C(=O)O | 0.8 |
| COc1cc(N(Cc2ccc(F)cc2)c2cccc(C(F)(F)F)c2)cnc1C(=O)[C@H]1C[C@@H]1C(=O)O | 1.9 |
| CCCN(c1cccc(C(F)(F)F)c1)c1cnc(C(=O)[C@H]2C[C@@H]2C(=O)O)c(OC)c1 | 1.2 |
| COc1nc(N(CC(C)C)c2cc(Cl)c(F)cc2F)cnc1C(=O)[C@H]1C[C@@H]1C(=O)O | 1.8 |
| COc1cc(N(CC2CC2)c2ccc(F)c3ccccc23)cnc1C(=O)[C@H]1C[C@@H]1C(=O)O | 1.9 |
| COc1cc(N(CC(F)(F)F)c2cccc(C(F)(F)F)c2)cnc1C(=O)[C@H]1C[C@@H]1C(=O)O | 1.1 |
| COc1cc(N(CC2CC2)c2ccc(Cl)c3ccccc23)cnc1C(=O)CCCC(=O)O | 2.8 |
| COc1cc(N(CC(C)C)c2cc(C(F)(F)F)ccc2F)cnc1C(=O)[C@H]1C[C@@H]1C(=O)O | 1.4 |

test system: not listed separately; test: Intrinsic clearance in human hepatocytes at 1 uM assessed as per million cells after 2 to 60 mins by LC-MS/MS analysis; assay type: ADME, cell-based, Hepatocyte; details: read-out: CLH

| Compound | hepatocyte CLint at 1 µM |
| --- | --- |
| COc1cc(N(CC2CC2)c2cc(Cl)c(F)cc2F)cnc1C(=O)[C@H]1C[C@@H]1C(=O)O | < 1.5 µL/min/1e6 cells |
| COc1cc(N(CC2CC2)c2ccc(F)c(Cl)c2)cnc1C(=O)[C@H]1C[C@@H]1C(=O)O | 3.1 µL/min/1e6 cells |
| CCN(c1cccc(C(F)(F)F)c1)c1cnc(C(=O)[C@H]2C[C@@H]2C(=O)O)c(OC)c1 | 3.1 µL/min/1e6 cells |
| CCN(c1cnc(C(=O)[C@H]2C[C@@H]2C(=O)O)c(OC)c1)c1ccc(F)c2ccccc12 | 3.8 µL/min/1e6 cells |
| COc1cc(N(CC(C)C)c2cccc(C(F)(F)F)c2)cnc1C(=O)[C@H]1C[C@@H]1C(=O)O | 2.9 µL/min/1e6 cells |
| COc1nc(N(CC(C)(C)F)c2cc(C(F)(F)F)ccc2F)cnc1C(=O)[C@H]1C[C@@H]1C(=O)O | 1.5 µL/min/1e6 cells |
| COc1cc(N(CC(C)C)c2ccc(F)c3ccccc23)cnc1C(=O)[C@H]1C[C@@H]1C(=O)O | 56 µL/min/1e6 cells |
| COc1cc(N(CC2CC2)c2ccc(Cl)cc2)cnc1C(=O)c1cccc(C(=O)O)c1 | 28 µL/min/1e6 cells |
| COc1cc(N(CC2CC2)c2ccc(Cl)cc2)cnc1C(=O)[C@@H]1C[C@H]1C(=O)O (relative stereo) | 1.8 µL/min/1e6 cells |
| COc1cc(N(CC(C)C)c2cc(Cl)c(F)cc2F)cnc1C(=O)[C@H]1C[C@@H]1C(=O)O | 4.9 µL/min/1e6 cells |
| COc1cc(N(CC2CC2)c2cc(Cl)ccc2F)cnc1C(=O)[C@H]1C[C@@H]1C(=O)O | 1.3 µL/min/1e6 cells |
| CCCN(c1cnc(C(=O)[C@H]2C[C@@H]2C(=O)O)c(OC)c1)c1ccc(F)c2ccccc12 | 7.6 µL/min/1e6 cells |
| COc1cc(N(CC2CC2)c2ccc(Cl)c(Cl)c2)cnc1C(=O)[C@H]1C[C@@H]1C(=O)O | 4.3 µL/min/1e6 cells |
| COc1cc(N(CC2CC2)c2cc(C(F)(F)F)ccc2F)cnc1C(=O)[C@H]1C[C@@H]1C(=O)O | < 1.1 µL/min/1e6 cells |
| COc1nc(C(=O)[C@@H]2C[C@H]2C(=O)O)ncc1N(CC1CC1)c1ccc(Cl)c2ccccc12 (relative stereo) | 15 µL/min/1e6 cells |
| COc1cc(N(CC(C)(C)F)c2cccc(C(F)(F)F)c2)cnc1C(=O)[C@H]1C[C@@H]1C(=O)O | < 1.5 µL/min/1e6 cells |
| COc1cc(N(CC2CC2)c2cccc(C(F)(F)F)c2)cnc1C(=O)[C@H]1C[C@@H]1C(=O)O | 2.3 µL/min/1e6 cells |
| COc1cc(N(CC(C)(C)F)c2cc(C(F)(F)F)ccc2F)cnc1C(=O)[C@H]1C[C@@H]1C(=O)O | < 1 µL/min/1e6 cells |
| COc1cc(N(CC2CC2)c2ccccc2)cnc1C(=O)[C@H]1C[C@@H]1C(=O)O | 3 µL/min/1e6 cells |
| COc1nc(N(CC(C)C)c2cc(C(F)(F)F)ccc2F)cnc1C(=O)[C@H]1C[C@@H]1C(=O)O | 2.9 µL/min/1e6 cells |
| COc1cc(N(CC(C)(C)F)c2cc(Cl)c(F)cc2F)cnc1C(=O)[C@H]1C[C@@H]1C(=O)O | < 1.7 µL/min/1e6 cells |
| COc1cc(N(Cc2ccc(F)cc2)c2cccc(C(F)(F)F)c2)cnc1C(=O)[C@H]1C[C@@H]1C(=O)O | 4.2 µL/min/1e6 cells |
| CCCN(c1cccc(C(F)(F)F)c1)c1cnc(C(=O)[C@H]2C[C@@H]2C(=O)O)c(OC)c1 | 7.2 µL/min/1e6 cells |
| COc1nc(N(CC(C)C)c2cc(Cl)c(F)cc2F)cnc1C(=O)[C@H]1C[C@@H]1C(=O)O | 3 µL/min/1e6 cells |
| COc1cc(N(CC2CC2)c2ccc(F)c3ccccc23)cnc1C(=O)[C@H]1C[C@@H]1C(=O)O | 5.4 µL/min/1e6 cells |
| COc1cc(N(CC2CC2)c2ccc(Cl)c3ccccc23)cnc1C(=O)CCCC(=O)O | 6.8 µL/min/1e6 cells |
| COc1cc(N(CC(C)C)c2cc(C(F)(F)F)ccc2F)cnc1C(=O)[C@H]1C[C@@H]1C(=O)O | 3.9 µL/min/1e6 cells |

target: not listed separately; test: Displacement of [3H]-GABA/[3]-muscimol from GABA gated chloride channel in Sprague-Dawley rat cortical synoptic membranes by liquid scintillation analysis; details: not given

| Compound | IC50 |
| --- | --- |
| COc1cc(N(CC2CC2)c2cc(Cl)c(F)cc2F)cnc1C(=O)[C@H]1C[C@@H]1C(=O)O | 5.4 µM |
| COc1cc(N(CC2CC2)c2ccc(F)c(Cl)c2)cnc1C(=O)[C@H]1C[C@@H]1C(=O)O | 3 µM |
| COc1cc(N(CC(C)(C)O)c2cccc(C(F)(F)F)c2)cnc1C(=O)[C@H]1C[C@@H]1C(=O)O | > 100 µM |
| CCN(c1cccc(C(F)(F)F)c1)c1cnc(C(=O)[C@H]2C[C@@H]2C(=O)O)c(OC)c1 | 20 µM |
| CCN(c1cnc(C(=O)[C@H]2C[C@@H]2C(=O)O)c(OC)c1)c1ccc(F)c2ccccc12 | 2.9 µM |
| CCCN(c1cnc(C(=O)[C@H]2C[C@@H]2C(=O)O)c(OC)c1)c1ccc(F)c2ccccc12 | 3.5 µM |
| COc1cc(N(CC2CC2)c2cc(C(F)(F)F)ccc2F)cnc1C(=O)[C@H]1C[C@@H]1C(=O)O | 8.2 µM |
| COc1cc(N(CC(C)(C)F)c2cccc(C(F)(F)F)c2)cnc1C(=O)[C@H]1C[C@@H]1C(=O)O | 54 µM |
| COc1cc(N(CC2CC2)c2cccc(C(F)(F)F)c2)cnc1C(=O)[C@H]1C[C@@H]1C(=O)O | 11 µM |
| CCCN(c1cccc(C(F)(F)F)c1)c1cnc(C(=O)[C@H]2C[C@@H]2C(=O)O)c(OC)c1 | 19 µM |
| COc1cc(N(CC2CC2)c2ccc(F)c3ccccc23)cnc1C(=O)[C@H]1C[C@@H]1C(=O)O | 0.64 µM |

target: T1, Leukotriene C4 synthase (Homo sapiens) (UniProt Q16873); test: Inhibition of LTC4S in healthy human whole blood assessed as inhibition of calcium ionophore A23187 stimulated cysteinyl leukotrienes production preincuabted for 30 mins followed by calcium ionophore stimulation and measured after 10 mins by LC-MS analysis; assay type: tissue-based; details: not given
T1 sequence (whole entry): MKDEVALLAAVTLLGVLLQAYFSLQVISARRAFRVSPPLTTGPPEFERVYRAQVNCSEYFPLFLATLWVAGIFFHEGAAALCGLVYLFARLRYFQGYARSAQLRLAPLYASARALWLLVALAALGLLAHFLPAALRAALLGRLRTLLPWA

| Compound | inhibition |
| --- | --- |
| CC(c1cc2ccccc2s1)N(O)C(N)=O (stereo not given) | Active |

target: T1, Leukotriene C4 synthase (Homo sapiens); test: Inhibition of LTC4S in asthmatic human whole blood assessed as inhibition of calcium ionophore A23187 stimulated cysteinyl leukotrienes production preincuabted for 30 mins followed by calcium ionophore stimulation and measured after 10 mins by LC-MS analysis; assay type: tissue-based; details: not given

| Compound | inhibition |
| --- | --- |
| CC(c1cc2ccccc2s1)N(O)C(N)=O (stereo not given) | Active |

target: T2, Leukotriene C4 synthase (Homo sapiens, UniProt Q16873); details: not given
T2 sequence (Q16873 whole entry): T1 sequence (whole entry)

| Compound | IC50 |
| --- | --- |
| COc1nc(C(=O)[C@H]2C[C@@H]2C(=O)O)ncc1N(CC1CC1)c1cccc2ccccc12 | 0.0024 µM |
| COc1ccccc1C(=O)Nc1ccc(C(=O)c2ccc(N(C)c3ccc(Cl)cc3)cn2)cc1C(=O)O | 0.035 µM |
| O=C(Nc1ccc(Cc2ccc(NC(=O)c3ccccc3)c(C(=O)O)c2)cc1C(=O)O)c1ccccc1 | 1.9 µM |
| COc1nc(C(=O)[C@@H]2C[C@H]2C(=O)O)ncc1N(CC1CC1)c1ccc(Cl)c2ccccc12 (relative stereo) | 0.0155 µM |
| COc1nc(N(CC(C)C)c2cc(C(F)(F)F)ccc2F)cnc1C(=O)[C@H]1C[C@@H]1C(=O)O | 0.00036 µM |
| COc1nc(N(CC(C)C)c2cc(Cl)c(F)cc2F)cnc1C(=O)[C@H]1C[C@@H]1C(=O)O | 0.00028 µM |

target: T2, Leukotriene C4 synthase; details: not given; remark: another data set of the same source

| Compound | IC50 |
| --- | --- |
| COc1nc(N(CC(C)(C)F)c2cc(C(F)(F)F)ccc2F)cnc1C(=O)[C@H]1C[C@@H]1C(=O)O | 0.0078 µM |
| COc1nc(N(CC(C)C)c2cc(C(F)(F)F)ccc2F)cnc1C(=O)[C@H]1C[C@@H]1C(=O)O | 0.0035 µM |
| COc1nc(N(CC(C)C)c2cc(Cl)c(F)cc2F)cnc1C(=O)[C@H]1C[C@@H]1C(=O)O | 0.0041 µM |
| COc1cc(N(CC(C)C)c2cc(C(F)(F)F)ccc2F)cnc1C(=O)[C@H]1C[C@@H]1C(=O)O | 0.0068 µM |

target: T1, Leukotriene C4 synthase (Homo sapiens); details: not given

| Compound | inhibition |
| --- | --- |
| O=C(Nc1ccc(Cc2ccc(NC(=O)c3ccccc3)c(C(=O)O)c2)cc1C(=O)O)c1ccccc1 | inactive |
